Experimental data published in the kinase profiling compilation of Christmann-Franck et al. (2016).
Values joined by “and” are separate entries in the source; they are usually repeats but may differ in a detail not shown here. Identical values can stand only once.

Experiments:
Experiment in all cases: radiometric filter-binding kinase assay, Kinase HotSpot
Settings in all cases: compound 0.5 µM; ATP 10 µM
PDGFRB (human) = PDGFRB (human) (UniProt P09619)
PIM3 (human) = PIM3 (human) (UniProt Q86V86)
GRK6 (human) = GRK6 (human) (UniProt P43250)
PLK1 (human) = PLK1 (human) (UniProt P53350)
TGFBR1 (human) = TGFBR1 (human) (UniProt P36897)
RPS6KB1 (human) = RPS6KB1 (human) (UniProt P23443)
EPHA2 (human) = EPHA2 (human) (UniProt P29317)
EPHA2 (human), sequence (P29317 whole entry, looked up): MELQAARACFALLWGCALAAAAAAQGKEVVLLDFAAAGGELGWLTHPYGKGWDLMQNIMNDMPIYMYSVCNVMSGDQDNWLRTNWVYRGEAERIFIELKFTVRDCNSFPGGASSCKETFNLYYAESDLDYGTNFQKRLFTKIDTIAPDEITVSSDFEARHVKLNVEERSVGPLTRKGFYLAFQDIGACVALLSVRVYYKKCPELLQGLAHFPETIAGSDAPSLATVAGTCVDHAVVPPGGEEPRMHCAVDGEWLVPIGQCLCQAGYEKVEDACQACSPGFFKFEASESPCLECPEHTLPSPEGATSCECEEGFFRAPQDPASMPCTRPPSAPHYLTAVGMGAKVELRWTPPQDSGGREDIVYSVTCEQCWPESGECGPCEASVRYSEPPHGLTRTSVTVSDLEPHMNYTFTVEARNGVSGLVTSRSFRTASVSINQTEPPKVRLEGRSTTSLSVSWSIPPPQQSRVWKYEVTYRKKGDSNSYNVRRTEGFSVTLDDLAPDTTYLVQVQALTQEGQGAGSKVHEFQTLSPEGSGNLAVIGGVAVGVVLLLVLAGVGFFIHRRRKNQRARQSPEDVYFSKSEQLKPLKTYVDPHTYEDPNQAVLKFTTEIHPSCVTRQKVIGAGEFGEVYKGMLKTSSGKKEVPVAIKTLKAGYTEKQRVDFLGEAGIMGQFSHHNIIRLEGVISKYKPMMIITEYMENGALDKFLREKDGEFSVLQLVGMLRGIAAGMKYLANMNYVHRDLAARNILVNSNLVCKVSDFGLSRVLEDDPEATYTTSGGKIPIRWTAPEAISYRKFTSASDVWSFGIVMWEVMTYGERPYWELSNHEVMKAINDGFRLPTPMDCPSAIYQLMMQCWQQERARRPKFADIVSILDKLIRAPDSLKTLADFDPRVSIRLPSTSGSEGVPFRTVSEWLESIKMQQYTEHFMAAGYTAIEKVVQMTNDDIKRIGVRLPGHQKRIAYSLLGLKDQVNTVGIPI

[1] = biological target: TYK2 JH1 catalytic (human) (UniProt P29597)
CSNK1D (human) = CSNK1D (human) (UniProt P48730)
PAK3 (human) = PAK3 (human) (UniProt O75914)
NEK9 (human) = NEK9 (human) (UniProt Q8TD19)
ROS1 (human) = ROS1 (human) (UniProt P08922)
CAMKK2 (human) = CAMKK2 (human) (UniProt Q96RR4)
MAPK14 (human) = MAPK14 (human) (UniProt Q16539)
DYRK4 (human) = DYRK4 (human) (UniProt Q9NR20)
SGK2 (human) = SGK2 (human) (UniProt Q9HBY8)
PAK6 (human) = PAK6 (human) (UniProt Q9NQU5)
ROCK2 (human) = ROCK2 (human) (UniProt O75116)
ROCK2 (human), sequence (O75116 whole entry, looked up): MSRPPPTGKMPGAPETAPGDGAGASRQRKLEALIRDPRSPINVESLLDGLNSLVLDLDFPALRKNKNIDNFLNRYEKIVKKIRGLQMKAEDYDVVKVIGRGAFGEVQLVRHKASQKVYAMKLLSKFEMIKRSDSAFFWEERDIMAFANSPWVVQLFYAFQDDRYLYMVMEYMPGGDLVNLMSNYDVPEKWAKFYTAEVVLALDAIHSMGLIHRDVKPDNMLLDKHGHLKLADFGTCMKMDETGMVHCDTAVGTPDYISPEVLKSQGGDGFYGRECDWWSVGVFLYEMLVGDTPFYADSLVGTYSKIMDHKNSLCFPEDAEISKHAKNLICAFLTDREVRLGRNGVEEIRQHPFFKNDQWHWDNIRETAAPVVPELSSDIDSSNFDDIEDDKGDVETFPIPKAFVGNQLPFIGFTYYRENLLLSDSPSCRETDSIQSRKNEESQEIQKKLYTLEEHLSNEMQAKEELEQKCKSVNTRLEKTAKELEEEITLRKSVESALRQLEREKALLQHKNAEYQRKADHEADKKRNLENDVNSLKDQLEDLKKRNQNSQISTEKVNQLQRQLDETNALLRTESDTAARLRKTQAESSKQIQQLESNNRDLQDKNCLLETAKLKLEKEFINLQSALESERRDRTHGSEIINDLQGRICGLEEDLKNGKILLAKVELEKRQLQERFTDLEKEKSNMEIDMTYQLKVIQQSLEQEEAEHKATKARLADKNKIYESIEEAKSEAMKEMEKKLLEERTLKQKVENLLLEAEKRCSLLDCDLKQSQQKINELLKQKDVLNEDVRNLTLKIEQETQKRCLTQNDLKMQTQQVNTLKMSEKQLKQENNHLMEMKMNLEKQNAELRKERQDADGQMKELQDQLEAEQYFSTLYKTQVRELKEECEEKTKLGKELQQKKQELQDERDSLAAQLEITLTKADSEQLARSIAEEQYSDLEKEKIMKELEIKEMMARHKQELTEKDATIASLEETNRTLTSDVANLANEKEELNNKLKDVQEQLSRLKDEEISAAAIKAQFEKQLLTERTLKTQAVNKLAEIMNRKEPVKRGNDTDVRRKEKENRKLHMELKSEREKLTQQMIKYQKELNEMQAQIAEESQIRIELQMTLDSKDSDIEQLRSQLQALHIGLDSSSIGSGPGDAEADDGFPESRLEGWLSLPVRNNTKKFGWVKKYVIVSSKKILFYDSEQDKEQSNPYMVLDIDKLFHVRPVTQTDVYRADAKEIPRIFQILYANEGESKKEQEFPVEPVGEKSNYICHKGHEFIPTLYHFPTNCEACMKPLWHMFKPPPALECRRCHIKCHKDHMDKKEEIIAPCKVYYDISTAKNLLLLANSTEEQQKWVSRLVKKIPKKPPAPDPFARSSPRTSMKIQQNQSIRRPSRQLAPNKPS

ULK2 (human) = ULK2 (human) (UniProt Q8IYT8)
SYK (human) = SYK (human) (UniProt P43405)
MAPK11 (human) = MAPK11 (human) (UniProt Q15759)
TBK1 (human) = TBK1 (human) (UniProt Q9UHD2)
FGFR3 (human) = FGFR3 (human) (UniProt P22607)
LIMK1 (human) = LIMK1 (human) (UniProt P53667)
NEK1 (human) = NEK1 (human) (UniProt Q96PY6)
NEK11 (human) = NEK11 (human) (UniProt Q8NG66)
NEK11 (human), sequence (Q8NG66 whole entry, looked up): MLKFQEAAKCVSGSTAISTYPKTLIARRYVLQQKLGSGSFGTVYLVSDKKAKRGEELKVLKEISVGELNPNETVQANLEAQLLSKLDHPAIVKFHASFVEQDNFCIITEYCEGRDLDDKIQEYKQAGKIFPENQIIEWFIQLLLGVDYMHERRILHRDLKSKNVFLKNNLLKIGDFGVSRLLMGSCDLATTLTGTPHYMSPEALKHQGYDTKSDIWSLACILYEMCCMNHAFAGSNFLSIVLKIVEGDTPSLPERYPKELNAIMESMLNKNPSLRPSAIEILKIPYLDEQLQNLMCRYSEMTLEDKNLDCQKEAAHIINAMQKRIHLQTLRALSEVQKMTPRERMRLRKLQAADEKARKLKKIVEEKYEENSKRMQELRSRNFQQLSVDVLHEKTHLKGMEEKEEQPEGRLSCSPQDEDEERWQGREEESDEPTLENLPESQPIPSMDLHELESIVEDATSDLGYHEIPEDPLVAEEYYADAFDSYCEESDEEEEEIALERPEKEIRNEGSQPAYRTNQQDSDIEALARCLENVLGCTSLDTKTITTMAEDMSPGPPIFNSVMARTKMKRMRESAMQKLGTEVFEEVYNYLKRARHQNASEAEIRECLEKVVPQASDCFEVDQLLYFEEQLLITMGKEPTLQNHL

PRKCH (human) = PRKCH (human) (UniProt P24723)
PRKCH (human), sequence (P24723 whole entry, looked up): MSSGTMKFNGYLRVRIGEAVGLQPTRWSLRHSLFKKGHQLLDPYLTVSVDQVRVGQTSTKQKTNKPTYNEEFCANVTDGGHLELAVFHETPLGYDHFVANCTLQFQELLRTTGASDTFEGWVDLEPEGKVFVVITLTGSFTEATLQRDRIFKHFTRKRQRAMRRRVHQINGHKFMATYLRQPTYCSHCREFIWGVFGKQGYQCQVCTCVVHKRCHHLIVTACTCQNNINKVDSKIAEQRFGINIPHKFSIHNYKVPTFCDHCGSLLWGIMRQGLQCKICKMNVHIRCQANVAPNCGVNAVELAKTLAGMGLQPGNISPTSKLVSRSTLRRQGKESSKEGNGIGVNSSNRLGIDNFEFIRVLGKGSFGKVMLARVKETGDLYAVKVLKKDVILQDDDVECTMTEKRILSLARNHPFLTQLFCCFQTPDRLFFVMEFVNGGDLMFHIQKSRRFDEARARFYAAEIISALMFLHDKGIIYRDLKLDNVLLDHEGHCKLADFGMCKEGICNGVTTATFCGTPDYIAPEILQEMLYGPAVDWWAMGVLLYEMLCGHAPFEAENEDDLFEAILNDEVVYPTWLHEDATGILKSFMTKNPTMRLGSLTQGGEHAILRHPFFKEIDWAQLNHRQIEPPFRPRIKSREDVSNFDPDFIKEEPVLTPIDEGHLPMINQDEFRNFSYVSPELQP

TAOK3 (human) = TAOK3 (human) (UniProt Q9H2K8)
RPS6KA6 KD1 KD2 (human) = RPS6KA6 KD1 KD2 (human) (UniProt Q9UK32)
CSNK1G2 (human) = CSNK1G2 (human) (UniProt P78368)
LYN (human) = LYN (human) (UniProt P07948)
LYN (human), sequence (P07948 whole entry, looked up): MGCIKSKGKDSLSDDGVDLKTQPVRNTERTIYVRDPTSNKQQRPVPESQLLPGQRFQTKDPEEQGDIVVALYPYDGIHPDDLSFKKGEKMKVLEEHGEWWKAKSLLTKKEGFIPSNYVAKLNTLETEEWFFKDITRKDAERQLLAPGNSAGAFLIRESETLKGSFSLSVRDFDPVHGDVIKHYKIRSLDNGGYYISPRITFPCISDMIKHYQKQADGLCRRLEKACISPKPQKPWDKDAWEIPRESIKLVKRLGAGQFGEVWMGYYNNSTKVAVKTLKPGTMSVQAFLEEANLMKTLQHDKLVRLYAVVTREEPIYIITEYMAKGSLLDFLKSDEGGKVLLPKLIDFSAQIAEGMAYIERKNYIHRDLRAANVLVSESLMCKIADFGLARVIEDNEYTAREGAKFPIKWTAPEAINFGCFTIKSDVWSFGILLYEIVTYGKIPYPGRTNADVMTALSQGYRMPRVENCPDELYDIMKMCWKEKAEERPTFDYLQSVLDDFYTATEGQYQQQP

CSNK2A1 (human) = CSNK2A1 (human) (UniProt P68400)
CSNK2A1 (human), sequence (P68400 whole entry, looked up): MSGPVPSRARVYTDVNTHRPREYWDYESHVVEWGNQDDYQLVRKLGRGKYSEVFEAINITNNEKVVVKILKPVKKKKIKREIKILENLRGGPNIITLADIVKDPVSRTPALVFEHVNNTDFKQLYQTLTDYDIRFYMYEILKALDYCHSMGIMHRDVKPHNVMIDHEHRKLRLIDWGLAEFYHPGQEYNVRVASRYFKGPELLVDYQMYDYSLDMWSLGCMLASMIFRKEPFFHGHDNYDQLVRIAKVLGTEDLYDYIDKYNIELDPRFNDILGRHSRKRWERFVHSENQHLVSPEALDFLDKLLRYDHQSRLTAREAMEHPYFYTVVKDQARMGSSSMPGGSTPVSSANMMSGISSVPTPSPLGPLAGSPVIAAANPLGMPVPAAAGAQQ

MST1R (human) = MST1R (human) (UniProt Q04912)
CAMK1G (human) = CAMK1G (human) (UniProt Q96NX5)
PRKG2 (human) = PRKG2 (human) (UniProt Q13237)
HIPK1 (human) = HIPK1 (human) (UniProt Q86Z02)
SRMS (human) = SRMS (human) (UniProt Q9H3Y6)
CAMKK1 (human) = CAMKK1 (human) (UniProt Q8N5S9)
CAMK1D (human) = CAMK1D (human) (UniProt Q8IU85)
LTK (human) = LTK (human) (UniProt P29376)
PRKCA (human) = PRKCA (human) (UniProt P17252)
SLK (human) = SLK (human) (UniProt Q9H2G2)

Which results are given for `O=C1NC(=O)C(c2cn(CCCn3ccnc3)c3ccccc23)=C1Nc1ccccc1`?
residual activity (PDGFRB (human)): 76.5%; residual activity (PIM3 (human)): 97.5%; residual activity (GRK6 (human)): 98.4%; residual activity (PLK1 (human)): 99.5%; residual activity (TGFBR1 (human)): 101%; residual activity (RPS6KB1 (human)): 42.7%; residual activity (EPHA2 (human)): 101%; residual activity [1]: 83.4%; residual activity (CSNK1D (human)): 102%; residual activity (PAK3 (human)): 100%; residual activity (NEK9 (human)): 89.1%; residual activity (ROS1 (human)): 78.7%; residual activity (CAMKK2 (human)): 51.3%; residual activity (MAPK14 (human)): 88.3%; residual activity (DYRK4 (human)): 89%; residual activity (SGK2 (human)): 82.4%; residual activity (PAK6 (human)): 105%; residual activity (ROCK2 (human)): 100%; residual activity (ULK2 (human)): 91.7%; residual activity (SYK (human)): 99.9%; residual activity (MAPK11 (human)): 111%; residual activity (TBK1 (human)): 48%; residual activity (FGFR3 (human)): 100%; residual activity (LIMK1 (human)): 83.8%; residual activity (NEK1 (human)): 114%; residual activity (NEK11 (human)): 75.6%; residual activity (PRKCH (human)): 29.7%; residual activity (TAOK3 (human)): 76.5%; residual activity (RPS6KA6 KD1 KD2 (human)): 2%; residual activity (CSNK1G2 (human)): 95.4%; residual activity (LYN (human)): 103% and 96.4%; residual activity (CSNK2A1 (human)): 100%; residual activity (MST1R (human)): 93.5%; residual activity (CAMK1G (human)): 84.6%; residual activity (PRKG2 (human)): 80.3%; residual activity (HIPK1 (human)): 102%; residual activity (SRMS (human)): 103%; residual activity (CAMKK1 (human)): 96.3%; residual activity (CAMK1D (human)): 97.4%; residual activity (LTK (human)): 93.4%; residual activity (PRKCA (human)): 32%; residual activity (SLK (human)): 39.1%

Which results are given for `O=c1cc(N2CCOCC2)oc2c1ccc1ccccc12`?
residual activity (PDGFRB (human)): 111%; residual activity (PIM3 (human)): 95.4%; residual activity (GRK6 (human)): 93.8%; residual activity (PLK1 (human)): 68.4%; residual activity (TGFBR1 (human)): 98.5%; residual activity (RPS6KB1 (human)): 99.3%; residual activity (EPHA2 (human)): 110%; residual activity [1]: 111%; residual activity (CSNK1D (human)): 97.9%; residual activity (PAK3 (human)): 102%; residual activity (NEK9 (human)): 102%; residual activity (ROS1 (human)): 97%; residual activity (CAMKK2 (human)): 104%; residual activity (MAPK14 (human)): 96.7%; residual activity (DYRK4 (human)): 91.9%; residual activity (SGK2 (human)): 102%; residual activity (PAK6 (human)): 92%; residual activity (ROCK2 (human)): 95.9%; residual activity (ULK2 (human)): 94.9%; residual activity (SYK (human)): 93%; residual activity (MAPK11 (human)): 97.9%; residual activity (TBK1 (human)): 102%; residual activity (FGFR3 (human)): 98.2%; residual activity (LIMK1 (human)): 98%; residual activity (NEK1 (human)): 106%; residual activity (NEK11 (human)): 99.1%; residual activity (PRKCH (human)): 94.7%; residual activity (TAOK3 (human)): 98.7%; residual activity (RPS6KA6 KD1 KD2 (human)): 95.4%; residual activity (CSNK1G2 (human)): 102%; residual activity (LYN (human)): 102% and 104%; residual activity (CSNK2A1 (human)): 70.9%; residual activity (MST1R (human)): 103%; residual activity (CAMK1G (human)): 102%; residual activity (PRKG2 (human)): 102%; residual activity (HIPK1 (human)): 102%; residual activity (SRMS (human)): 97.1%; residual activity (CAMKK1 (human)): 112%; residual activity (CAMK1D (human)): 91.1%; residual activity (LTK (human)): 101%; residual activity (PRKCA (human)): 89.2%; residual activity (SLK (human)): 102%

What does the source list for `COc1ccc(COc2ccc(Cc3cnc(N)nc3N)cc2OC)cc1`?
residual activity (PDGFRB (human)): 98.2%; residual activity (PIM3 (human)): 95.9%; residual activity (GRK6 (human)): 99.8%; residual activity (PLK1 (human)): 97.1%; residual activity (TGFBR1 (human)): 97%; residual activity (RPS6KB1 (human)): 89.5%; residual activity (EPHA2 (human)): 107%; residual activity [1]: 97.6%; residual activity (CSNK1D (human)): 98.5%; residual activity (PAK3 (human)): 102%; residual activity (NEK9 (human)): 93.3%; residual activity (ROS1 (human)): 99.9%; residual activity (CAMKK2 (human)): 103%; residual activity (MAPK14 (human)): 106%; residual activity (DYRK4 (human)): 101%; residual activity (SGK2 (human)): 97.5%; residual activity (PAK6 (human)): 94.9%; residual activity (ROCK2 (human)): 84.1%; residual activity (ULK2 (human)): 105%; residual activity (SYK (human)): 89%; residual activity (MAPK11 (human)): 98.7%; residual activity (TBK1 (human)): 103%; residual activity (FGFR3 (human)): 105%; residual activity (LIMK1 (human)): 94.5%; residual activity (NEK1 (human)): 95.6%; residual activity (NEK11 (human)): 103%; residual activity (PRKCH (human)): 88.6%; residual activity (TAOK3 (human)): 102%; residual activity (RPS6KA6 KD1 KD2 (human)): 101%; residual activity (CSNK1G2 (human)): 101%; residual activity (LYN (human)): 98.1% and 99.9%; residual activity (CSNK2A1 (human)): 105%; residual activity (MST1R (human)): 104%; residual activity (CAMK1G (human)): 98.3%; residual activity (PRKG2 (human)): 104%; residual activity (HIPK1 (human)): 110%; residual activity (SRMS (human)): 95.9%; residual activity (CAMKK1 (human)): 115%; residual activity (CAMK1D (human)): 93%; residual activity (LTK (human)): 100%; residual activity (PRKCA (human)): 95.9%; residual activity (SLK (human)): 97.7%

`c1ccc(-c2n[nH]cc2-c2ccnc3ccccc23)nc1` was tested. Which residual activity (PDGFRB (human)) did it give?
The residual activity was 106%.

What about the residual activity (PIM3 (human)) of the same compound?
Its residual activity is 90.6%.

And the residual activity (GRK6 (human))?
The residual activity was 94.6%.

And the residual activity (PLK1 (human))?
The residual activity was 102%.

What about the residual activity (TGFBR1 (human)) of the same compound?
Its residual activity is 41.6%.

And the residual activity (RPS6KB1 (human))?
Its residual activity is 106%.

What about the residual activity (EPHA2 (human)) of the same compound?
Its residual activity is 103%.

What about the residual activity [1] of the same compound?
Its residual activity is 101%.

And the residual activity (CSNK1D (human))?
The residual activity was 44.2%.

And the residual activity (PAK3 (human))?
Its residual activity is 99.7%.

What about the residual activity (NEK9 (human)) of the same compound?
Its residual activity is 94.7%.

What about the residual activity (ROS1 (human)) of the same compound?
Its residual activity is 102%.

And the residual activity (CAMKK2 (human))?
The residual activity was 97%.

What about the residual activity (MAPK14 (human)) of the same compound?
Its residual activity is 96%.

What about the residual activity (DYRK4 (human)) of the same compound?
The residual activity was 104%.

What about the residual activity (SGK2 (human)) of the same compound?
The residual activity was 101%.

What about the residual activity (PAK6 (human)) of the same compound?
Its residual activity is 106%.

What about the residual activity (ROCK2 (human)) of the same compound?
Its residual activity is 100%.

What about the residual activity (ULK2 (human)) of the same compound?
The residual activity was 95.6%.

And the residual activity (SYK (human))?
The residual activity was 99.7%.

And the residual activity (MAPK11 (human))?
Its residual activity is 106%.

And the residual activity (TBK1 (human))?
The residual activity was 92.6%.

And the residual activity (FGFR3 (human))?
The residual activity was 97.4%.

And the residual activity (LIMK1 (human))?
The residual activity was 103%.

What about the residual activity (NEK11 (human)) of the same compound?
Its residual activity is 91.8%.

And the residual activity (PRKCH (human))?
Its residual activity is 94.6%.

What about the residual activity (TAOK3 (human)) of the same compound?
Its residual activity is 92.8%.

What about the residual activity (RPS6KA6 KD1 KD2 (human)) of the same compound?
The residual activity was 112%.

And the residual activity (CSNK1G2 (human))?
The residual activity was 103%.

And the residual activity (LYN (human))?
Its residual activity is 100% and 87.8%.

What about the residual activity (CSNK2A1 (human)) of the same compound?
Its residual activity is 96.3%.

What about the residual activity (MST1R (human)) of the same compound?
Its residual activity is 99.9%.

And the residual activity (CAMK1G (human))?
The residual activity was 102%.

What about the residual activity (PRKG2 (human)) of the same compound?
Its residual activity is 89.2%.

And the residual activity (HIPK1 (human))?
The residual activity was 99.9%.

And the residual activity (SRMS (human))?
Its residual activity is 105%.

What about the residual activity (CAMKK1 (human)) of the same compound?
The residual activity was 109%.

And the residual activity (CAMK1D (human))?
The residual activity was 100%.

What about the residual activity (LTK (human)) of the same compound?
Its residual activity is 92.8%.

And the residual activity (PRKCA (human))?
Its residual activity is 98.5%.

What about the residual activity (SLK (human)) of the same compound?
The residual activity was 104%.
